# Experimental data taken from patent US10363239B2, “Method for inhibiting growth of cancer cells” (Pain Therapeutics, Inc., priority 2013, dated 2019).
# Molecular target: FLNA pentapeptide of SEQ ID NO: 1 (Bn-VAKGL) (Homo sapiens, UniProt P21333)
# Experiment: FITC-NLX-based FLNA screening assay (inhibition of FITC-naloxone binding to Bn-VAKGL on streptavidin plates)
# Conditions: FLNA-binding compound 0.01 μM; 10 nM FITC-NLX; read-out: Percent Binding Inhibition
row,SMILES,inhibition at 0.01 µM
1,CC1CCC(C(C)C)C(OCC(O)CN2CC(C)OC(C)C2)C1 (stereo not drawn) [Compound A0032-1],35.6%
2,OC(COc1ccc(Br)c(F)c1)CN1CCc2ccccc2C1 (stereo not drawn) [Compound A0057],29.1%

# Same assay, conditions: FLNA-binding compound 0.1 μM; 10 nM FITC-NLX; read-out: Percent Binding Inhibition
row,SMILES,inhibition at 0.1 µM
1,CC(=O)Nc1ccc(S(=O)(=O)N2CCC3(CC2)OCCN3S(=O)(=O)c2ccc(NC(C)=O)cc2)cc1 [Compound C0013],42.4%
2,CC1CCC(C(C)C)C(OCC(O)CN2CC(C)OC(C)C2)C1 (stereo not drawn) [Compound A0032-1],43.9%
3,OC(COc1ccc(Br)c(F)c1)CN1CCc2ccccc2C1 (stereo not drawn) [Compound A0057],37%

# Same assay, conditions: FLNA-binding compound 1 μM; 10 nM FITC-NLX; read-out: Percent Binding Inhibition
row,SMILES,inhibition at 1 µM
1,CC(=O)Nc1ccc(S(=O)(=O)N2CCC3(CC2)OCCN3S(=O)(=O)c2ccc(NC(C)=O)cc2)cc1 [Compound C0013],49.1%
2,CC1CCC(C(C)C)C(OCC(O)CN2CC(C)OC(C)C2)C1 (stereo not drawn) [Compound A0032-1],50%
3,OC(COc1ccc(Br)c(F)c1)CN1CCc2ccccc2C1 (stereo not drawn) [Compound A0057],43.4%

# Same assay, conditions: read-out: Percent Binding Inhibition, FLNA-binding compound 0.01 μM; 10 nM FITC-NLX
row,SMILES,inhibition at 0.01 µM
1,O=C1CNC2(CCNCC2)N1Cc1ccccc1 [Compound C0114M],57.1%
2,CC(=O)Nc1ccc(S(=O)(=O)N2CCC3(CC2)OCCN3S(=O)(=O)c2ccc(NC(C)=O)cc2)cc1 [Compound C0013],39.6%
3,CC1CCC(C(C)C)C(OCC(O)CN2CCC(=O)CC2)C1 (stereo not drawn) [Compound A0060],32.4%
4,CC1CCC(C(C)C)C(OCC(O)CN2CCSCC2)C1 (stereo not drawn) [Compound A0003],21.3%
5,CCN(CC)CC(O)COC1CC(C)CCC1C(C)C (stereo not drawn) [Compound A0032],43%

# Same assay, conditions: read-out: Percent Binding Inhibition, FLNA-binding compound 0.1 μM; 10 nM FITC-NLX
row,SMILES,inhibition at 0.1 µM
1,O=C1CNC2(CCNCC2)N1Cc1ccccc1 [Compound C0114M],63.2%
2,CC1CCC(C(C)C)C(OCC(O)CN2CCC(=O)CC2)C1 (stereo not drawn) [Compound A0060],39%
3,CC1CCC(C(C)C)C(OCC(O)CN2CCSCC2)C1 (stereo not drawn) [Compound A0003],31.6%
4,CCN(CC)CC(O)COC1CC(C)CCC1C(C)C (stereo not drawn) [Compound A0032],50.3%

# Same assay, conditions: read-out: Percent Binding Inhibition, FLNA-binding compound 1 μM; 10 nM FITC-NLX
row,SMILES,inhibition at 1 µM
1,O=C1CNC2(CCNCC2)N1Cc1ccccc1 [Compound C0114M],66.7%
2,CC1CCC(C(C)C)C(OCC(O)CN2CCC(=O)CC2)C1 (stereo not drawn) [Compound A0060],42%
3,CC1CCC(C(C)C)C(OCC(O)CN2CCSCC2)C1 (stereo not drawn) [Compound A0003],37.4%
4,CCN(CC)CC(O)COC1CC(C)CCC1C(C)C (stereo not drawn) [Compound A0032],54.5%

# Test system: mu opiate receptor (MOR)
# Experiment: MOR agonist activity using [35S]GTPγS binding assay in striatal membranes
# Type: biochemical
# Conditions: 0.1 μM compound
# How it was run: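 Striatal membranes (200 μg) were preincubated 5 min at 30 °C in HEPES pH 7.5 with 100 mM NaCl, 1 mM MgCl2 and 0.5 nM [35S]GTPγS, then 5 min more with 0.1–10 μM compound. Gαo was immunoprecipitated and bound radioactivity counted by scintillation.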
row,SMILES,"MOR agonist activity ([35S]GTPγS binding), FLNA-Binding Compound as Agonist 0.1 μM"
1,CC1CCC(C(C)C)C(OCC(O)CN2CCC(=O)CC2)C1 (stereo not drawn) [Compound A0060],99.7%
2,CC1CCC(C(C)C)C(OCC(O)CN2CCSCC2)C1 (stereo not drawn) [Compound A0003],176.8%
3,CCN(CC)CC(O)COC1CC(C)CCC1C(C)C (stereo not drawn) [Compound A0032],226.9%
4,CC1CCC(C(C)C)C(OCC(O)CN2CC(C)OC(C)C2)C1 (stereo not drawn) [Compound A0032-1],187.4%
5,OC(COc1ccc(Br)c(F)c1)CN1CCc2ccccc2C1 (stereo not drawn) [Compound A0057],124.2%

# Same assay, conditions: 0.1 μM compound relative to DAMGO
row,SMILES,% DAMGO (0.1 μM)
1,CC1CCC(C(C)C)C(OCC(O)CN2CCC(=O)CC2)C1 (stereo not drawn) [Compound A0060],63.9%
2,CC1CCC(C(C)C)C(OCC(O)CN2CCSCC2)C1 (stereo not drawn) [Compound A0003],118.3%
3,CCN(CC)CC(O)COC1CC(C)CCC1C(C)C (stereo not drawn) [Compound A0032],115.6%
4,CC1CCC(C(C)C)C(OCC(O)CN2CC(C)OC(C)C2)C1 (stereo not drawn) [Compound A0032-1],95.5%
5,OC(COc1ccc(Br)c(F)c1)CN1CCc2ccccc2C1 (stereo not drawn) [Compound A0057],79.6%

# Same assay, conditions: 1 μM compound
row,SMILES,"MOR agonist activity ([35S]GTPγS binding), FLNA-Binding Compound as Agonist 1 μM"
1,CC1CCC(C(C)C)C(OCC(O)CN2CCC(=O)CC2)C1 (stereo not drawn) [Compound A0060],158.2%
2,CC1CCC(C(C)C)C(OCC(O)CN2CCSCC2)C1 (stereo not drawn) [Compound A0003],276.0%
3,CCN(CC)CC(O)COC1CC(C)CCC1C(C)C (stereo not drawn) [Compound A0032],257.8%
4,CC1CCC(C(C)C)C(OCC(O)CN2CC(C)OC(C)C2)C1 (stereo not drawn) [Compound A0032-1],324.5%
5,OC(COc1ccc(Br)c(F)c1)CN1CCc2ccccc2C1 (stereo not drawn) [Compound A0057],192.1%

# Same assay, conditions: 1 μM compound + 1 μM β-funaltrexamine
row,SMILES,"MOR agonist activity ([35S]GTPγS binding), FLNA-Binding Compound as Agonist 1 μM + BFNA"
1,CC1CCC(C(C)C)C(OCC(O)CN2CCC(=O)CC2)C1 (stereo not drawn) [Compound A0060],14.3%
2,CC1CCC(C(C)C)C(OCC(O)CN2CCSCC2)C1 (stereo not drawn) [Compound A0003],17.1%
3,CCN(CC)CC(O)COC1CC(C)CCC1C(C)C (stereo not drawn) [Compound A0032],133.0%
4,CC1CCC(C(C)C)C(OCC(O)CN2CC(C)OC(C)C2)C1 (stereo not drawn) [Compound A0032-1],224.5%
5,OC(COc1ccc(Br)c(F)c1)CN1CCc2ccccc2C1 (stereo not drawn) [Compound A0057],44.8%

# Same assay, conditions: 1 μM compound + BFNA relative to DAMGO + BFNA
row,SMILES,% DAMGO + BFNA
1,CC1CCC(C(C)C)C(OCC(O)CN2CCC(=O)CC2)C1 (stereo not drawn) [Compound A0060],35.8%
2,CC1CCC(C(C)C)C(OCC(O)CN2CCSCC2)C1 (stereo not drawn) [Compound A0003],64.5%
3,CCN(CC)CC(O)COC1CC(C)CCC1C(C)C (stereo not drawn) [Compound A0032],180.0%
4,CC1CCC(C(C)C)C(OCC(O)CN2CC(C)OC(C)C2)C1 (stereo not drawn) [Compound A0032-1],303.8%
5,OC(COc1ccc(Br)c(F)c1)CN1CCc2ccccc2C1 (stereo not drawn) [Compound A0057],112.3%

# Same assay, conditions: 1 μM compound relative to DAMGO
row,SMILES,% DAMGO (1 μM)
1,CC1CCC(C(C)C)C(OCC(O)CN2CCC(=O)CC2)C1 (stereo not drawn) [Compound A0060],68.6%
2,CC1CCC(C(C)C)C(OCC(O)CN2CCSCC2)C1 (stereo not drawn) [Compound A0003],119.9%
3,CCN(CC)CC(O)COC1CC(C)CCC1C(C)C (stereo not drawn) [Compound A0032],93.4%
4,CC1CCC(C(C)C)C(OCC(O)CN2CC(C)OC(C)C2)C1 (stereo not drawn) [Compound A0032-1],117.6%
5,OC(COc1ccc(Br)c(F)c1)CN1CCc2ccccc2C1 (stereo not drawn) [Compound A0057],83.3%

# Same assay, conditions: Series C-1; 0.1 μM compound, relative to DAMGO
row,SMILES,% DAMGO (0.1 μM)
1,CC(=O)Nc1ccc(S(=O)(=O)N2CCC3(CC2)OCCN3S(=O)(=O)c2ccc(NC(C)=O)cc2)cc1 [Compound C0013],91.0%

# Same assay, conditions: Series C-1; 0.1 μM compound; [35S]GTPγS binding to Gαo, striatal membranes
row,SMILES,Concentration of FLNA-Binding Compound as Agonist 0.1 μM
1,CC(=O)Nc1ccc(S(=O)(=O)N2CCC3(CC2)OCCN3S(=O)(=O)c2ccc(NC(C)=O)cc2)cc1 [Compound C0013],156.6%

# Same assay, conditions: Series C-1; 1 μM compound + 1 μM β-FNA
row,SMILES,Concentration of FLNA-Binding Compound as Agonist 1 μM + BFNA
1,CC(=O)Nc1ccc(S(=O)(=O)N2CCC3(CC2)OCCN3S(=O)(=O)c2ccc(NC(C)=O)cc2)cc1 [Compound C0013],39.6%

# Same assay, conditions: Series C-1; 1 μM compound + β-FNA, relative to DAMGO + BFNA
row,SMILES,% DAMGO + BFNA
1,CC(=O)Nc1ccc(S(=O)(=O)N2CCC3(CC2)OCCN3S(=O)(=O)c2ccc(NC(C)=O)cc2)cc1 [Compound C0013],61.8%

# Same assay, conditions: Series C-1; 1 μM compound, relative to DAMGO
row,SMILES,% DAMGO (1 μM)
1,CC(=O)Nc1ccc(S(=O)(=O)N2CCC3(CC2)OCCN3S(=O)(=O)c2ccc(NC(C)=O)cc2)cc1 [Compound C0013],108.9%

# Same assay, conditions: Series C-1; 1 μM compound; [35S]GTPγS binding to Gαo, striatal membranes
row,SMILES,Concentration of FLNA-Binding Compound as Agonist 1 μM
1,CC(=O)Nc1ccc(S(=O)(=O)N2CCC3(CC2)OCCN3S(=O)(=O)c2ccc(NC(C)=O)cc2)cc1 [Compound C0013],301.2%

# Same assay, conditions: Series C-2; 0.1 μM compound, relative to DAMGO
row,SMILES,% DAMGO (0.1 μM)
1,O=C1CNC2(CCNCC2)N1Cc1ccccc1 [Compound C0114M],77.6%

# Same assay, conditions: Series C-2; 0.1 μM compound; [35S]GTPγS binding to Gαo, striatal membranes
row,SMILES,"MOR agonist activity, percent [35S]GTPγS binding at the stated compound concentration"
1,O=C1CNC2(CCNCC2)N1Cc1ccccc1 [Compound C0114M],114.0%

# Same assay, conditions: Series C-2; 1 μM compound + 1 μM β-FNA
row,SMILES,"MOR agonist activity, percent [35S]GTPγS binding at the stated compound concentration"
1,O=C1CNC2(CCNCC2)N1Cc1ccccc1 [Compound C0114M],35.9%

# Same assay, conditions: Series C-2; 1 μM compound + β-FNA, relative to DAMGO + BFNA
row,SMILES,% DAMGO + BFNA
1,O=C1CNC2(CCNCC2)N1Cc1ccccc1 [Compound C0114M],91.3%

# Same assay, conditions: Series C-2; 1 μM compound, relative to DAMGO
row,SMILES,% DAMGO (1 μM)
1,O=C1CNC2(CCNCC2)N1Cc1ccccc1 [Compound C0114M],71.4%

# Same assay, conditions: Series C-2; 1 μM compound; [35S]GTPγS binding to Gαo, striatal membranes
row,SMILES,"MOR agonist activity, percent [35S]GTPγS binding at the stated compound concentration"
1,O=C1CNC2(CCNCC2)N1Cc1ccccc1 [Compound C0114M],144.3%
